Results from patent US20100022559A1, “BISOXIMES AS FUNGICIDES” (BAYER CROPSCIENCE AG, priority 2006, published 2010).

Test: logP determination by HPLC on a reversed-phase column (C 18), EEC Directive 79/831 Annex V.A8
Format: physicochemical
Conditions: [b] LC-MS, acidic range, pH 2.7, 0.1% aqueous formic acid and acetonitrile
Experimental: The stated logP values were determined in accordance with EEC Directive 79/831 Annex V.A8 by HPLC (high performance liquid chromatography) on a reversed-phase column (C 18). Temperature: 43° C.

logP | SMILES
1.11^[b] | C/C(=N\OCC(C)(C)CON)c1cccc(C)n1 [XII-4]

Same assay, conditions: method marked [a] in Table 1

logP | SMILES
6.50^[a] | CC(=NOCC(C)(C)CON=C(C)c1cccc(Cl)n1)c1cccc(Cl)n1 [compound 569]
3.99^[a] | Cc1cccc(C(=NOCC2(CON=C(c3cccc(C)n3)C3CC3)CC(CC(C)C)=NO2)C2CC2)n1 (stereo not drawn) [compound 653]
6.08^[a] | CC(=NOCC(C)CON=C(C)c1cccc(Cl)n1)c1cccc(Cl)n1 (stereo not drawn) [compound 568]

Same assay, conditions: method marked [b] in Table 1

logP | SMILES
2.28^[b] | Cc1cccc(C=NOCC(C)CON=Cc2cccc(C)n2)n1 (stereo not drawn) [compound 668]
6.09^[b] | CC(=NOCC1(CON=C(C)c2cccc(C)n2)CCCCC1)c1cccc(C)n1 [Compound 561]
3.31^[b] | CC(=NOc1ncnc(ON=C(C)c2cccc(C)n2)c1Cl)c1cccc(C)n1 [compound 729]
3.22^[b] | CCCC(CON=C(C)c1cc(C)cc(C)n1)CON=C(C)c1cc(C)cc(C)n1 (stereo not drawn) [Compound 555]
3.33^[b] | CCCC1=NOC(CON=C(C)c2cccc(C)n2)(CON=C(C)c2cccc(C)n2)C1 (stereo not drawn) [compound 598]
4.46^[b] (isomer B) | C=C(CON=C(C)c1cccc(C)n1)CON=C(CCC)c1ncccc1C (single isomer, unassigned) [compound 535]
3.85^[b] | N/C(=N\OCc1ccccc1CO/N=C(\N)c1nc(C2CC2)cc(C2CC2)n1)c1nc(C2CC2)cc(C2CC2)n1 [compound 711]
2.90^[b] | CC(=NOCC1(CON=C(C)c2cc(C)cc(C)n2)CCC1)c1cc(C)cc(C)n1 [Compound 562]
2.13^[b] | CC(=NOCCC(C)ON=C(C)c1nc(C)ccc1C)c1nc(C)ccc1C (single isomer, unassigned) [compound 758]
3.13^[b] | N/C(=N\OC/C=C/CO/N=C(\N)c1nc(C2CC2)cc(C2CC2)n1)c1nc(C2CC2)cc(C2CC2)n1 [compound 722]
2.20^[b] | CCCC1=NOC(CON=C(C)c2cc(C)cc(C)n2)(CON=C(C)c2cc(C)cc(C)n2)C1 (stereo not drawn) [compound 640]
3.46^[b] | CC(C)=CC1=NOC(CO/N=C(\C)c2ccc(C)c(C)n2)(CO/N=C(\C)c2ccc(C)c(C)n2)C1 [compound 636]
6.58^[b] | CCCC(=NOCC1(CON=C(CCC)c2cccc(C)n2)CC(c2cccc(Cl)c2)=NO1)c1cccc(C)n1 (stereo not drawn) [compound 624]
2.96^[b] | N/C(=N\OCc1ccc(CO/N=C(\N)c2ncc(F)cc2F)cc1)c1ncc(F)cc1F [compound 719]

Same assay, conditions: method marked [c] in Table 1

logP | SMILES
7.15^[c] | CC(=NOCC1(CON=C(C)c2cccc(C)n2)CCCCC1)c1cccc(C)n1 [Compound 561]
7.15^[c] | CCCC(CON=C(C)c1cc(C)cc(C)n1)CON=C(C)c1cc(C)cc(C)n1 (stereo not drawn) [Compound 555]
7.36^[c] | CCCc1nc(C(C)=NOCC(C)CON=C(C)c2ccc(C)c(CCC)n2)ccc1C (stereo not drawn) [Compound 550]
6.93^[c] | CC(=NOCC1(CON=C(C)c2cc(C)cc(C)n2)CCC1)c1cc(C)cc(C)n1 [Compound 562]
4.03^[c] | CC(=NOCCC(C)ON=C(C)c1nc(C)ccc1C)c1nc(C)ccc1C (single isomer, unassigned) [compound 758]

Same assay, conditions: method marker [a] (footnote not shown); isomer A / isomer B / isomer mixture as noted in the cell

logP | SMILES
3.11^[a] (isomer A) | CCC(=NOCCCON=C(CC)c1ncccc1C)c1ncccc1C (single isomer, unassigned) [compound 95]
2.40^[a] | CC(=NOC(=O)CCC(=O)ON=C(C)c1cccc(C)n1)c1cccc(C)n1 [compound 159]
3.87^[a] | CC(=NOCC(C)CON=C(C)c1cccnc1Cl)c1cccnc1Cl (mixture of isomers) [compound 107]
6.27^[a] | C=C(CON=C(CCC)c1cccc(C)n1)CON=C(CCC)c1cccc(C)n1 (mixture of isomers) [Compound 240]
1.50^[a] | CC(=NOCC(O)CON=C(C)c1ccccn1)c1ccccn1 (stereo not drawn) [compound 3]
3.06^[a] | CC(=NOCCCON=C(C)c1ccnc(C)n1)c1ccnc(C)n1 [compound 161]
4.94^[a] | Cc1ccc(C(=NOCCCON=C(c2ccc(C)c(C)n2)C(C)C)C(C)C)nc1C (mixture of isomers) [compound 238]

Same assay, conditions: method marker [b]; isomer A / isomer B / isomer mixture as noted in the cell

logP | SMILES
1.71^[b] | CC(=NOCCON=C(C)c1cc(C)ccn1)c1cc(C)ccn1 [compound 34]
4.56^[b] | C=C(CON=C(C)c1ccc(Br)nc1)CON=C(C)c1ccc(Br)nc1 [compound 151]
5.25^[b] | C=C(CON=C(C)c1cccc(C)n1)CON=C(C)c1ccc2ccccc2n1 [Compound 202]
1.87^[b] | Cc1cc(C)nc(/C(N)=N/OCO/N=C(\N)c2cc(C)cc(C)n2)c1 [compound 58]
3.50^[b] | C=C(CON=C(C)c1cccc(C)n1)CON=C(N)c1ncc(C(F)(F)F)cc1Cl [compound 245]
3.54^[b] | Cc1nc(C(N)=NOCC(C)CON=C(N)c2csc(C)n2)cs1 (stereo not drawn) [compound 83]
7.00^b] | C=C(CON=C(C)c1cc(C)c2ccccc2n1)CON=C(C)c1cc(C)c2ccccc2n1 [compound 160]
3.39^[b] (isomer B) | C=C(CON=C(C)c1cccc(C)n1)CON=C(C)c1ncccc1Cl (single isomer, unassigned) [compound 139]
3.19^[b] | C=C(CO/N=C(\N)c1csc(C)n1)CO/N=C(\N)c1csc(C)n1 [Compound 27]
3.42^[b] | C=C(CON=C(C)c1nccc(OCC)n1)CON=C(C)c1nccc(OCC)n1 [compound 252]

Same assay, conditions: value marked [a]

logP | SMILES
5.58^[a] | CCC(=NOCC(C)(C)CON=C(CC)c1ccc(C)c(C)n1)c1ccc(C)c(C)n1 [Compound 280]
4.96^[a] | CC(=NOC1CCCC(ON=C(C)c2cccc(C)n2)C1)c1cccc(C)n1 (mixture of isomers) [compound 801]
5.05^[a] | CC[Si](CC)(CON=C(C)c1cc(C)cc(C)n1)CON=C(C)c1cc(C)cc(C)n1 [Compound 787]
7.02^[a) | CC(=NOCC1(CON=C(C)c2cc(Cl)cc(C)n2)CC1)c1cc(Cl)cc(C)n1 [compound 805]
3.99^[a] | CC(=NOCC(C)(C)CON=C(C)c1csc(C)n1)c1csc(C)n1 [compound 518]
3.09^[a] | CC(=NOCC(C)CON=C(C)c1cc(C)n(C)n1)c1cc(C)n(C)n1 (mixture of isomers) [compound 261]
1.40^[a] | CC(=NOCC(C)CON=C(C)c1cc(N2CCCC2)cc(C)n1)c1cc(N2CCCC2)cc(C)n1 (stereo not drawn) [Compound 847]
4.35^[a] | CCSC(=NOCC(C)CON=C(SCC)c1cccc(C)n1)c1cccc(C)n1 (stereo not drawn) [Compound 820]
1.95^[a] | CC(=NOCC(C)CON=C(C)c1cccc(NCC2CC2)n1)c1cccc(NCC2CC2)n1 (stereo not drawn) [Compound 791]

Same assay, conditions: value marked [b]

logP | SMILES
5.48^[b] | C=C(CON=C(C)c1ccc(Cl)cc1)CON=C(C)c1cccc(C)n1 [compound 471]
1.71^[b] (isomer B) | C=C(CON=C(C)c1ccnc(C)c1)CON=C(C)c1cccc(C)n1 (single isomer, unassigned) [compound 362]
4.07^[b] | C=C(CON=C(CC)c1nc(C)c(C)c(C)n1)CON=C(CC)c1nc(C)c(C)c(C)n1 [compound 516]
5.24^[b] | CCC(CC)(CON=C(C)c1nc(C)ccc1C)CON=C(C)c1nc(C)ccc1C [compound 812]
2.55^[b] (isomer B) | Cc1cc(C)nc(C(N)=NOC/C=C/CON=C(N)c2cc(C)cc(C)n2)c1 (single isomer, unassigned) [compound 770]
5.05^[b] | CC[Si](CC)(CON=C(C)c1cc(C)cc(C)n1)CON=C(C)c1cc(C)cc(C)n1 [Compound 787]
4.91^[b] | CC(=NOCC(C)CON=C(C)c1cccc(C)n1)c1ccccc1 (stereo not drawn) [compound 439]
2.37^[b] | CC(=NOCCCCON=C(C)c1nccc(C)n1)c1cccc(C)n1 [compound 508]
5.59^[b] | CCC(=NOCCCCCCON=C(C)c1cccc(C)n1)c1cccc(C)n1 [Compound 346]
7.36^[b] | COc1c(Cl)cc(C(C)=NOCC(C)CON=C(C)c2cc(Cl)c(OC)c(C)n2)nc1C (stereo not drawn) [compound 839]
3.65^[b] (isomer B) | CCC(=NOCCCCON=C(C)c1cccc(C)n1)c1ncccc1C (single isomer, unassigned) [compound 328]
5.54^[b] | CC(=NOCCCCON=C(C)c1cccc(C)n1)c1cccc(C(F)(F)F)c1 [Compound 375]
4.20^[b] | C=C(CON=C(C)c1ccc2c(c1)OCO2)CON=C(C)c1cccc(C)n1 [compound 401]
3.99^[b] | CC(=NOCC(C)(C)CON=C(C)c1csc(C)n1)c1csc(C)n1 [compound 518]
3.51^[b] | CC(=NOCCCCCCON=C(C)c1cc(C)cc(C)n1)c1cccc(C)n1 [Compound 460]
5.71^[b] | CC(=NOCC(C)(C)CON=C(Cc1ccccc1)c1ncccc1C)c1cccc(C)n1 [compound 363]
6.81^[b] | CCC(=NOCC(C)(C)CON=C(CC)c1cccc(C)n1)c1cccc(C)n1 [compound 883]
2.37^[b] (isomer A) | C=C(CON=C(C)c1nc(C)ccc1C)CON=C(C)c1nc(C)ccc1C (single isomer, unassigned) [compound 307]
4.91^[b] | CC(=NOCC(CON=C(C)c1ccc(C)c(C)n1)C(C)(C)C)c1ccc(C)c(C)n1 (stereo not drawn) [Compound 317]
6.58^[b] | CC(=NOCCCCCCON=C(C)c1cccc(C)n1)c1ccc(Cl)cc1 [compound 458]
4.76^[b] | CC(=NOCC1(CON=C(C)c2nc(C)ccc2C)CCCC1)c1nc(C)ccc1C (single isomer, unassigned) [Compound 763]
5.97^[b] | CC(=NOCCCCCCON=C(C)c1cccc(C)n1)c1ccc2c(c1)CC(C)O2 (stereo not drawn) [compound 455]
4.74^[b] | C=C(CON=C(C)c1cccc(C)n1)CON=C(C)c1ccccc1Cl [compound 402]
4.51^[b] | CCC(=NOCC(C)CON=C(C)c1cccc(C)n1)c1cccc(C)n1 (stereo not drawn) [Compound 428]
4.15^[b] | CC(=NOCC(C)CON=C(c1ccccc1)c1ncccc1C)c1cccc(C)n1 (stereo not drawn) [compound 421]
5.08^[b] | CC(=NOCC(C)CON=C(C)c1ccccc1Cl)c1cccc(C)n1 (stereo not drawn) [compound 436]
6.09^[b] | CC(=NOCC(C)CON=C(C)c1cccc(Cc2ccccc2)n1)c1cccc(C)n1 (stereo not drawn) [Compound 420]
3.94^[b] | CC(=NOCCCCCCON=C(C)c1cccc(C)n1)c1cc(C)ccn1 [compound 386]

Same assay, conditions: value marked [c]

logP | SMILES
6.66^[c] | CCC(CC)(CON=C(C)c1nc(C)ccc1C)CON=C(C)c1nc(C)ccc1C [compound 812]
7.36^[c] | CC[Si](CC)(CON=C(C)c1cc(C)cc(C)n1)CON=C(C)c1cc(C)cc(C)n1 [Compound 787]
7.36^[c] | COc1c(Cl)cc(C(C)=NOCC(C)CON=C(C)c2cc(Cl)c(OC)c(C)n2)nc1C (stereo not drawn) [compound 839]
7.36^[c] | CCC(=NOCC(C)(C)CON=C(CC)c1cccc(C)n1)c1cccc(C)n1 [compound 883]
5.93^[c] | CC(=NOCC(C)CON=C(C)c1cc(N2CCCC2)cc(C)n1)c1cc(N2CCCC2)cc(C)n1 (stereo not drawn) [Compound 847]
7.36^[c] | CC(=NOCC(CON=C(C)c1ccc(C)c(C)n1)C(C)(C)C)c1ccc(C)c(C)n1 (stereo not drawn) [Compound 317]
6.32^[c] | CC(=NOCC1(CON=C(C)c2nc(C)ccc2C)CCCC1)c1nc(C)ccc1C (single isomer, unassigned) [Compound 763]
